The text below walks through data of EP3391747A1, “USE OF PHENOXYPYRIDINYL-SUBSTITUTED (1H-1,2,4-TRIAZOL-1-YL)ALCOHOLS FOR ENHANCING CROP PERFORMANCE” (Bayer AG, priority 2018, dated 2018).

Assay [1] has as its system Septoria tritici. Put plainly: Septoria tritici test / in vitro microtest (liquid medium, microtitre plates, optical density at 620 nm). Format: cell-based. As to conditions: for EC50 (Mean): mean over the 14 strains; for EC50: 5 days of incubation. Here is the method: In an in-vitro microtest, several compounds were tested against different strains of Septoria tritici.
The microtest was performed in liquid medium with 50% malt medium using microtitre plates.
The active compounds are applied as technical active substances dissolved in methanol and 8 concentrations were prepared. The resulting concentration range was 0; 0.0032; 0.016; 0.08; 0.4; 2; 10; and 50 µg a.i. /ml. A mycelium suspension of different strains of Septoria tritici was used for inoculation. After 5 days of incubation in darkness under shaking (10 Hrz) the optical density in each cavity was determined photometrically at 620 nm. […] Table 3: Septoria tritici test /in vitro

Assay [2] concerns winter wheat. In words: Field trial in winter wheat: impact on yield, greening and canopy coverage under pathogen-free conditions. The assay is classed as in vivo, winter wheat variety "Dekan". As to conditions: 125 g a.i./ha; for Grain Yield (% of Control) / Grain Yield: sprayed threefold at BBCH 31, 39 and 69 as 100EC formulation; for Grain Yield (% of Control): control = 100EC blank formulation; for Grain Yield: harvest July 2017; for Greening (% of Control): measured visually at BBCH growth stage 65, untreated control plots = 100%; for Canopy Coverage: tractor-mounted RGB camera system, BBCH growth stage 37. Here is the method: A field trial in winter wheat was conducted in the experimental station "Laacherhof" in Germany from autumn 2016 to summer 2017.
Seeds of the winter wheat variety "Dekan" were planted in October 2016. Fertilization, herbicide- and plant growth regulator applications were carried out according to the local agricultural practice. Additionally, a cover spray with the fungicidal composition "Pronto® Plus" was carried out at BBCH growth stage 51 in order to keep the field trial pathogen-free. The trial was conducted with 4 replicates and the replicates 2, 3 and 4 were randomized. The plot size was 8.8 m^2.
The compounds 2-[6-(4-chlorophenoxy)-2-(trifluoromethyl)-3-pyridyl]-1-(1,2,4-triazol-1-yl)propan-2-ol (I.01) and 2-[6-(4-bromophenoxy)-2-(trifluoromethyl)-3-pyridyl]-1-(1,2,4-triazol-1-yl)propan-2-ol (1.02) were sprayed threefold at BBCH growth stages 31, 39 and 69 with an use rate of 125 g a.i./ha (a.i. = active ingredient, i.e. the respective compound of formula (I)). Both compounds were applied as a 100EC formulation (100EC = emulsion concentrate comprising 100 g/L of the respective active ingredient).
The winter wheat was harvested in July 2017.
The greening effect was measured visually at BBCH growth stage 65. The greening of the untreated control plots corresponds to 100% and the plots of the other treatments were directly compared to the control plots (table 1).
The canopy coverage was measured by a tractor-mounted RGB camera system on May 11, 2017 at BBCH growth stage 37 (table 1). Table 1: Impact of different compounds on yield, greening and canopy coverage

Assay [3] has as its system leaf discs of grape plants. Put plainly: Leaf disc test: chlorophyll content (greening effect) by SPAD-502 chlorophyll meter. As to conditions: 1 ppm; after 3 days at room temperature (21°C); 5 replicates. Here is the method: According to this invention the chlorophyll content is measured by means of the commercially available hand-held chlorophyll meter SPAD-502 (Konica Minolta).
In a lab experiment, leaf discs of grape plants were put in petri dishes containing solutions of different compounds. 5 replicates were used for each treatment. Afterwards, the petri dishes were incubated for max. 7 days at room temperature (21°C). After 3 days, the chlorophyll content of the leaf discs was measured by using a commercially available hand-held chlorophyll meter (SPAD-502, Konica Minolta). Table 2: Impact of 2-[6-(4-bromophenoxy)-2-(trifluoromethyl)-3-pyridyl]-1-(1,2,4-triazol-1-yl)propan-2-ol (I.02) on the chlorophyll content (greening effect) in leaf discs

In the case of `CC(O)(Cn1cncn1)c1ccc(Oc2ccc(Cl)cc2)nc1C(F)(F)F` (stereo not shown) [Compound 1.01, 2-[6-(4-chlorophenoxy)-2-(trifluoromethyl)-3-pyridyl]-1-(1,2,4-triazol-1-yl)propan-2-ol], in assay [1], the “EC50 (Mean)” value is 0,0203 ppm. The EC50 in assay [1] (strain 01/16) is 0,1348 ppm; in assay [1] (strain 02/16) it was 0,0248 ppm; in assay [1] (strain 03/16), 0,0032 ppm; in assay [1] (strain 04/16), 0,0355 ppm; in assay [1] (strain 05/16), 0,0503 ppm; in assay [1] (strain 06/16), 0,0039 ppm. Moreover, the EC50 was 0,0032 ppm in assay [1] (strain 07/16); 0,0641 ppm in assay [1] (strain 08/16); 0,1002 ppm in assay [1] (strain 09/16); 0,0034 ppm in assay [1] (strain 11/16); 0,0715 ppm in assay [1] (strain 12/16); 0,0055 ppm in assay [1] (strain 13/16). For the same compound, the EC50 is listed as 0,0147 ppm in assay [1] (strain 14/16) and 0,0663 ppm in assay [1] (strain 15/16). Besides, the “Grain Yield (% of Control)” value in assay [2] is reported as 108 % of Control. Moreover, the “Grain Yield” value in assay [2] was 74,6 dt/ha. For the same compound, in assay [2], the “Greening (% of Control)” value is given as 108 % of Control. The “Canopy Coverage” value in assay [2] is 58%.
In the case of `CC(O)(Cn1cncn1)c1ccc(Oc2ccc(Br)cc2)nc1C(F)(F)F` (stereo not shown) [Compound 1.02, 2-[6-(4-bromophenoxy)-2-(trifluoromethyl)-3-pyridyl]-1-(1,2,4-triazol-1-yl)propan-2-ol], the “SPAD Reading” value in assay [3] is given as 32. In addition, in assay [1], the “EC50 (Mean)” value was 0,0133 ppm. The EC50 in assay [1] (strain 01/16) is recorded as 0,0187 ppm; in assay [1] (strain 02/16) it was 0,0108 ppm; in assay [1] (strain 03/16), 0,0043 ppm; in assay [1] (strain 04/16), 0,0433 ppm; in assay [1] (strain 05/16), 0,0223 ppm; in assay [1] (strain 06/16), 0,0033 ppm. The EC50 in assay [1] (strain 07/16) is 0,0032 ppm; in assay [1] (strain 08/16), 0,0629 ppm; in assay [1] (strain 09/16), 0,0416 ppm; in assay [1] (strain 11/16), 0,0038 ppm; in assay [1] (strain 12/16) it was 0,0806 ppm; in assay [1] (strain 13/16), 0,0169 ppm. The figures for the EC50 in assay [1] (strain 14/16) and in assay [1] (strain 15/16) were 0,0080 ppm and 0,0059 ppm, respectively. In addition, the “Grain Yield (% of Control)” value in assay [2] is 112 % of Control. For the same compound, the “Grain Yield” value in assay [2] is on record as 77,8 dt/ha. The “Greening (% of Control)” value in assay [2] is recorded as 137 % of Control. Further, the “Canopy Coverage” value in assay [2] is listed as 58%.
Regarding `CC(C)(C)C(O)(CCc1ccc(Cl)cc1)Cn1cncn1` (stereo not shown) [Tebuconazole, reference compound], in assay [3], the “SPAD Reading” value is 25. Besides, the “EC50 (Mean)” value in assay [1] is reported as 7,4138 ppm. Further, the EC50 was 8,1102 ppm in assay [1] (strain 01/16); 14,4303 ppm in assay [1] (strain 02/16); 13,2784 ppm in assay [1] (strain 03/16); 50,0000 ppm in assay [1] (strain 04/16); 8,5712 ppm in assay [1] (strain 05/16); 10,6222 ppm in assay [1] (strain 06/16). The EC50 in assay [1] (strain 07/16) is recorded as 5,4355 ppm; in assay [1] (strain 08/16) it was 4,2639 ppm; in assay [1] (strain 09/16), 27,1082 ppm; in assay [1] (strain 11/16) it was 0,6823 ppm; in assay [1] (strain 12/16) it was 2,1260 ppm; in assay [1] (strain 13/16), 28,6583 ppm. The EC50 is given as 3,4790 ppm in assay [1] (strain 14/16) and 2,3577 ppm in assay [1] (strain 15/16).
